Assay results reported in patent publication US20260022122A1 (Checkmate Therapeutics Inc., priority 2022, published 2026).

Tests used:
[1] = test system: NAPRT negative lung cancer cell lines (H322, H661, H1155); assay: Proliferation inhibition on NAPRT negative lung cancer cell lines (CellTiter-Glo); type: cell-based; settings: 72 hours
Description: (§1) A compound showing a low IC50 value was selected from the compounds of the above Examples and treated an NAPRT positive or negative lung cancer cell line with various concentrations, and then the change in cell viability for each cell line was measured. The results are presented in a graph (a few materials known as NamPT inhibitors were used as controls). A total of 9 cancer cells lines (three NAPRT negative cell lines: H322, H661, and H1155; and six NAPRT positive cell lines: H1993, H2122, H2030, H1975, H1299, and HBEC30) were used. 5% fetal bovine serum (Gibco, US) and 1% penicillin/streptomycin (Gibco) were added to a medium, and the cells were cultured in a 37° C. constant temperature incubator containing 5% CO2. For compound treatment, each type of cells were seeded at 3×10^3 cells/well in a 96-well plate (Corning) and then incubated in a 37° C. constant temperature incubator containing 5% CO2 for 18 hours. […] Afterwards, the cells were cultured in an incubator containing 5% CO2 at 37° C. for 72 hours. To confirm the effect of inhibiting the proliferation of cancer cells, a CellTiter-Glo Luminescent Cell Viability Assay (Promega) was used. After treating the cells with 10 μL of CellTiter-Glo luciferase reagent and leaving them for 15 minutes at room temperature, the luminescence of each well was measured using EnVision2105 (PerkinElmer). The change in cell viability by the compound diluted at the concentration of each step was converted into a relative % value for the amount of luminescence shown by DMSO treatment. EC50 is expressed as the concentration of each compound that induces 50% of the maximum luminescence level.
(§2) The results of measuring the proliferation inhibition ability of the compound of each Example on nine types of lung cancer cell lines, obtained through the above experiment, are shown in Table 2 in the unit of EC50 (μM). The resulting values are expressed as follows.

[2] = target: NamPT (Homo sapiens (Human), UniProt P43490); assay: Measurement of NamPT inhibitory ability IC50 (NamPT colorimetric assay kit, Abcam ab221819); type: biochemical; settings: NamPT recombinant protein, WST-1 absorbance at 450 nm; class key in μM
Description: To test the effect of the compound prepared in each Example on the substrate decomposition rate (Vmax/min) mediated by NamPT enzyme, IC50 was calculated. In this experiment, the NamPT colorimetric assay kit (ab221819) produced by Abcam was used, and Graph prism software was used for IC50 calculation. PRPP, ATP, NMNAT1, NamPT recombinant proteins, and various concentrations of the compound of each Example (half-log step dilution from 100 μM) were added to nicotinamide to synthesize nicotinamide adenine dinucleotide (NAD) from the nicotinamide, and a total of 60 μL of the reaction solution was reacted at room temperature for 1 hour. WST-1 formazan converted by NAD generated by adding WST-1 was measured. The result of the reaction was obtained by the following formula by measuring absorbance using EnVision2105 (PerkinElmer) at 450 nm for 60 minutes at 2-minute intervals.
In Mathematical Formula 1, T1 and T2 are arbitrary times, and A1 and A2 represent the absorbance measured at T1 and T2 at 450 nm, respectively.
The results of measuring the NamPT inhibition activity of the compound of each Example obtained through the above experiment are shown in Table 1 in the unit of IC50 (nM), and the result values are expressed as follows.

[3] = test system: NAPRT positive cell lines (H1993, H2122, H2030, H1975, H1299, HBEC30); assay: Proliferation inhibition on NAPRT positive lung cancer cell lines (CellTiter-Glo); type: cell-based; settings: 72 hours
Description: as §1, §2

[4] = test system: NAPRT-negative gastric cancer cell line HGC27; assay: NAPRT-negative cancer cell xenograft model (% tumor growth inhibition); type: in vivo; settings: 50 mg/kg, orally once a day from day 1 to day 21, HGC27 xenograft in BALB/c nude mice
Text: Based on the effect of inhibiting proliferation limited to NAPRT-negative cancer cell lines according to the experiment of the proliferation inhibitory effect (EC50) on NAPRT-negative cancer cell lines, the pharmacological effect in a xenograft model using NAPRT-negative cancer cell lines was verified. Five-week-old female BALB/c nude mice were purchased and used in the experiment after acclimation for one week. The cancer cells used in the experiment were a NAPRT-negative gastric cancer cell line HGC27, and cultured in […] medium (Gibco) to which 5% Fetal Bovine Serum (Gibco, US) and 1% penicillin/streptomycin (Gibco) were added. HGC27 was suspended in PBS (Welgene) and transplanted to have 5×10^6 cells into each mouse. After adding Matrigel in the same value, tumors were induced by subcutaneous injection into the right flank using a 1 mL syringe. After 3 weeks of breeding, when the average tumor size was 100 to 150 mm^3, mice were randomly divided into groups of 7 and administered each compound. The compound was prepared in an excipient (0.5% DMSO/2% Tween 80/20% PEG 400/20% b-HPCD in 77.5% DW) as an agent for oral administration, and administered orally once a day from day 1 to day 21 to the mouse model in which a tumor was generated. From day 1 to day 21, the body weight was measured once daily, and the tumor size was measured three times a week. The tumor size was measured using a caliper and calculated using the following formula.
In Mathematical Formula 2, W is a length, and d is a width.
On day 21, all animals were euthanized, blood samples were collected, and tumors were removed. To evaluate blood toxicity, blood was collected from an EDTA-containing blood collection tube, and subjected to a general blood test (complete blood count, CBC) and a blood biochemical test. Isolated tumors were weighed after photographing and a portion was used to measure NAD to verify the on-target efficacy of the compound. To measure NAD, a NAD/NADH Quantitation Colorimetric Kit (K337) produced by BioVision was used.
The pharmacological effect of each compound in the NAPRT-negative cancer cell xenograft models, obtained in this experiment, is shown in Table 3 in the unit of % TGI (tumor growth inhibition).

Sequence of NamPT (P43490 whole entry): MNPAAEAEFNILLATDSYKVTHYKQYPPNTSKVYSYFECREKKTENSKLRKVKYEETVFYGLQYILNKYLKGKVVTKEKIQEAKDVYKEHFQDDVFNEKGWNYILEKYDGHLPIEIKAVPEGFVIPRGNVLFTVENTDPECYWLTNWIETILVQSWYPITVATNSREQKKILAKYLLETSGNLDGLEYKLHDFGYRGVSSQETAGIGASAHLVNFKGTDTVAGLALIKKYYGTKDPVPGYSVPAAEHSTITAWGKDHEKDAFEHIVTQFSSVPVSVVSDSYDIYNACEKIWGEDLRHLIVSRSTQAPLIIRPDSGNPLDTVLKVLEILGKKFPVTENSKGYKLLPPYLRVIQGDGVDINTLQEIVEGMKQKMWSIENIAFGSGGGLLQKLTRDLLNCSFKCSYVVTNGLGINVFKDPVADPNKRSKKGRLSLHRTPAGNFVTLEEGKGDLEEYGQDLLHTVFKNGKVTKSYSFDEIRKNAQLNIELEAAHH

Compound | EC50 [1] | IC50 [2] | EC50 [3] | % TGI (Tumor Growth inhibition) [4]
O=C(NCc1ccc(-c2nc3ccccc3o2)cc1)c1cnc2nccn2c1 [Example 2, N-[[4-(1,3-benzoxazol-2-yl)phenyl]methyl]imidazo[1,2-a]pyrimidin-6-carboxamide] | < 0.05 µM | 0.051 to 0.1 µM | > 101 µM | –
CC(C)c1ccc2nc(-c3ccc(CNC(=O)c4cnc5nccn5c4)cc3)oc2c1 [Example 3] | < 0.05 µM | – | > 101 µM | –
Cc1ccc2oc(-c3ccc(CNC(=O)c4cnc5nccn5c4)cc3)nc2c1 [Example 6, N-[[4-(5-methyl-1,3-benzoxazol-2-yl)phenyl]methyl]imidazo[1,2-a]pyrimidin-6-carboxamide] | < 0.05 µM | < 0.05 µM | > 101 µM | –
CS(=O)(=O)c1ccc2oc(-c3ccc(CNC(=O)c4cnc5nccn5c4)cc3)nc2c1 [Example 9, N-[[4-(5-methylsulfonyl-1,3-benzoxazol-2-yl)phenyl]methyl]imidazo[1,2-a]pyrimidin-6-carboxamide] | < 0.05 µM | < 0.05 µM | > 101 µM | –
Cc1cc2nc(-c3ccc(CNC(=O)c4cnc5nccn5c4)cc3)oc2cc1F [Example 11, N-[[4-(6-fluoro-5-methyl-1,3-benzoxazol-2-yl)phenyl]methyl]imidazo[1,2-a]pyrimidin-6-carboxamide] | – | < 0.05 µM | – | 82%
O=C(NCc1ccc(-c2nc3ccc(F)cc3o2)cc1)c1cnc2nccn2c1 [Example 17, N-[[4-(6-fluoro-1,3-benzoxazol-2-yl)phenyl]methyl]imidazo[1,2-a]pyrimidin-6-carboxamide] | 0.051 to 0.1 µM | 0.051 to 0.1 µM | > 101 µM | –
O=C(NCc1ccc(-c2nc3ccc(C(F)(F)F)cc3o2)cc1)c1cnc2nccn2c1 [Example 19, N-[[4-[6-(trifluoromethyl)-1,3-benzoxazol-2-yl]phenyl]methyl]imidazo[1,2-a]pyrimidin-6-carboxamide] | 0.051 to 0.1 µM | < 0.05 µM | > 101 µM | –
COc1ccc2nc(-c3ccc(CNC(=O)c4cnc5nccn5c4)cc3)oc2c1 [Example 22, N-[[4-(6-methoxy-1,3-benzoxazol-2-yl)phenyl]methyl]imidazo[1,2-a]pyrimidin-6-carboxamide] | 0.051 to 0.1 µM | < 0.05 µM | > 101 µM | –
CCNC(=O)c1ccc2oc(-c3ccc(CNC(=O)c4cnc5nccn5c4)cc3)nc2c1 [Example 31, N-ethyl-2-[4-[(imidazo[1,2-a]pyrimidin-6-carbonxylamino)methyl]phenyl]-1,3-benzoxazol-5-carboxamide] | < 0.05 µM | < 0.05 µM | > 101 µM | –
CN(C)C(=O)c1ccc2oc(-c3ccc(CNC(=O)c4cnc5nccn5c4)cc3)nc2c1 [Example 32, 2-[4-[(imidazo[1,2-a]pyrimidin-6-carbonylamino)methyl]phenyl]-N,N-dimethyl-1,3-benzoxazol-5-carboxamide] | < 0.05 µM | < 0.05 µM | 10 to 100 µM | –
O=C(NCc1ccc(-c2nc3cc(C(=O)N4CCC4)ccc3o2)cc1)c1cnc2nccn2c1 [Example 33, N-[[4-[5-(azetidin-1-carbonyl)-1,3-benzoxazol-2-yl]phenyl]methyl]imidazo[1,2-a]pyrimidin-6-carboxamide] | < 0.05 µM | < 0.05 µM | > 101 µM | –
O=C(NCc1ccc(-c2nc3cc(C(=O)N4CCCC4)ccc3o2)cc1)c1cnc2nccn2c1 [Example 34, N-[[4-[5-(pyrrolidine-1-carbonyl)-1,3-benzoxazol-2-yl]phenyl]methyl]imidazo[1,2-a]pyrimidin-6-carboxamide] | < 0.05 µM | < 0.05 µM | 10 to 100 µM | –
O=C(NCc1ccc(-c2nc3cc(S(=O)(=O)c4ccccc4)ccc3o2)cc1)c1cnc2nccn2c1 [Example 38, N-[[4-[5-(benzenesulfonyl)-1,3-benzoxazol-2-yl]phenyl]methy]imidazo[1,2-a]pyrimidin-6-carboxamide] | 0.051 to 0.1 µM | < 0.05 µM | > 101 µM | –
O=C(NCc1ccc(-c2nc3cc(-c4ccccc4)ccc3o2)cc1)c1cnc2nccn2c1 [Example 56, N-[[4-(5-phenyl-1,3-benzoxazol-2-yl)phenyl]methyl]imidazo[1,2-a]pyrimidin-6-carboxamide] | – | 0.11 to 1 µM | – | –
O=C(NCc1ccc(-c2nc3ccc(Oc4ccccc4)cc3o2)cc1)c1cnc2nccn2c1 [Example 57, N-[[4-(6-phenoxy-1,3-benzoxazol-2-yl)phenyl]methyl]imidazo[1,2-a]pyrimidin-6-carboxamide] | – | > 1 µM | – | –
O=C(NCc1ccc(-c2nc3ccc(Oc4cccnc4)cc3o2)cc1)c1cnc2nccn2c1 [Example 58, N-[[4-[6-(3-pyridyloxy)-1,3-benzoxazol-2-yl]phenyl]methyl]imidazo[1,2-a]pyrimidin-6-carboxamide] | – | < 0.05 µM | – | –
O=C(NCc1ccc(-c2nc3ccc(-c4ccccc4)cc3o2)cc1)c1cnc2nccn2c1 [Example 59, N-[[4-(6-phenyl-1,3-benzoxazol-2-yl)phenyl]methyl]imidazo[1,2-a]pyrimidin-6-carboxamide] | – | > 1 µM | – | –
O=C(NCc1ccc(-c2nc3ccc(Cl)nc3o2)cc1)c1cnc2nccn2c1 [Example 60, N-[[4-(5-chlorooxazolo[5,4-b]pyridin-2-yl)phenyl]methyl]imidazo[1,2-a]pyrimidin-6-carboxamide] | – | < 0.05 µM | – | –
Cc1ccc2nc(-c3ccc(CNC(=O)c4ccc5nccn5c4)cc3)oc2c1 [Example 61, N-[[4-(6-methyl-1,3-benzoxazol-2-yl)phenyl]methyl]imidazo[1,2-a]pyridin-6-carboxamide] | – | 0.11 to 1 µM | – | –
O=C(NCc1ccc(-c2nc3cnc(Cl)cc3o2)cc1)c1cnc2nccn2c1 [Example 62] | – | 0.051 to 0.1 µM | – | –
O=C(NCc1ccc(-c2nc3ccc(Cl)cc3o2)cn1)c1cnc2nccn2c1 [Example 63, N-[[5-(6-chloro-1,3-benzoxazol-2-yl)-2-pyridyl]methyl]imidazo[1,2-a]pyrimidin-6-carboxamide] | – | < 0.05 µM | – | –
Cc1ccc2nc(-c3ccc(C(C)NC(=O)c4cnc5nccn5c4)cc3)oc2c1 (stereo not shown) [Example 64, N-[1-[4-(6-methyl-1,3-benzooxazol-2-yl)phenyl]ethyl]imidazo[1,2-a]pyrimidin-6-carboxamide] | – | > 1 µM | – | –
